Reference: PubChem BioAssay (NCI)
Several values for one entry are separate records, joined by “and”; a condition that tells them apart may be missing. Equal values may be shown once.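 In this assay, cells in 96-well plates receive the compound at five concentrations for 48 hours. Endpoints are linearly interpolated between the surrounding concentrations. Abbreviation: GI50, concentration required for 50% inhibition of growth. The concentration for full growth arrest is given as TGI.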

Key:
Assay in all cases: NCI-60 cell line screen, 48 h
A498 renal = tested on: A498 renal
DU-145 prostate = tested on: DU-145 prostate
HOP-92 NSCLC = tested on: HOP-92 NSCLC
HS 578T breast = tested on: HS 578T breast
M14 melanoma = tested on: M14 melanoma
MALME-3M melanoma = tested on: MALME-3M melanoma
PC-3 prostate = tested on: PC-3 prostate
SF-268 CNS = tested on: SF-268 CNS
T-47D breast = tested on: T-47D breast
U251 CNS = tested on: U251 CNS

SMILES | TGI (A498 renal) | TGI (DU-145 prostate) | TGI (HOP-92 NSCLC) | TGI (HS 578T breast) | TGI (M14 melanoma) | TGI (MALME-3M melanoma) | TGI (PC-3 prostate) | TGI (SF-268 CNS) | TGI (T-47D breast) | TGI (U251 CNS) | GI50 (A498 renal) | GI50 (DU-145 prostate) | GI50 (HOP-92 NSCLC) | GI50 (HS 578T breast) | GI50 (M14 melanoma) | GI50 (MALME-3M melanoma) | GI50 (PC-3 prostate) | GI50 (SF-268 CNS) | GI50 (T-47D breast) | GI50 (U251 CNS)
COc1cc2c(cc1OC)[C@H]1C(=O)c3cc4c(cc3[C@H]1N(C)C2=O)OCO4 | > 79.5 µM | > 100 µM | > 89.8 µM | > 100 µM | > 76.6 µM | > 89.5 µM | > 100 µM | > 100 µM | > 100 µM | > 100 µM |  |  |  |  |  |  |  |  |  | 
Cc1cc2c(cc1Cl)SC1=NN(C)C(c3ccccc3O)N1S2(=O)=O (stereo not drawn) | > 100 µM | > 100 µM | > 100 µM | > 100 µM | > 100 µM | > 100 µM | > 100 µM | > 100 µM | > 100 µM | > 100 µM | > 100 µM | 65.7 µM | 37.6 µM | > 100 µM | 47.5 µM | > 100 µM | > 100 µM | 61.6 µM | > 100 µM | 47.7 µM
Cc1cc(N)c2ccccc2[n+]1CCCCCCCCCC[n+]1c(C)cc(N)c2ccccc21 |  | 2.59 µM and 20.2 µM |  | > 19.2 µM and 29.6 µM | 3.25 µM and 18.5 µM and 7.33 µM |  | 4.63 µM and 15.8 µM and 11.1 µM | 3.49 µM and 10.3 µM and 32.5 µM |  | 1.05 µM and 1.94 µM and 6.52 µM | 0.0691 µM | 0.23 µM | 0.168 µM | 0.303 µM | 0.584 µM | 0.163 µM and 1.35 µM | 0.245 µM and 0.744 µM |  | 0.0959 µM | 0.145 µM and 1.15 µM
Cc1ccc(OCCCCCCNCCO)c(C)c1 | 17.7 µM | 30.6 µM | 13.4 µM | 35.5 µM | 35.3 µM | 35.3 µM | 29.7 µM | 31.1 µM | 30.2 µM | 26.8 µM | 3.48 µM | 16.7 µM | 2.36 µM | 14.3 µM | 16.3 µM | 17 µM | 14 µM | 16 µM | 11.7 µM | 12.7 µM
CN1CC(C(=O)NC2(C)OC3(O)C4CCCN4C(=O)C(Cc4ccccc4)N3C2=O)C=C2c3cccc4[nH]cc(c34)CC21 (stereo not drawn) | 30.9 µM | 67.8 µM | 38.6 µM | 29 µM | 81.4 µM | 38.6 µM | 59.6 µM | 29.6 µM | > 100 µM | 38.2 µM |  |  |  |  |  |  |  |  |  | 
O=c1[nH]c2cc(O)ccc2n2cc3c(F)cccc3c12 | > 100 µM | > 100 µM | > 100 µM | > 100 µM | > 100 µM | > 100 µM | > 100 µM | > 100 µM | > 100 µM | > 100 µM | 3.76 µM | 6.78 µM | 3.41 µM | 3.85 µM | 1.38 µM | 3.96 µM | 4.54 µM | 2.57 µM | > 100 µM | 2.49 µM
O=[N+]([O-])c1cccc(-c2ncc(-c3ccc(Cl)cc3Cl)[nH]2)c1 | 22.6 µM | 10.5 µM | 35.4 µM | > 49.5 µM | 26.9 µM | 8.84 µM | 14.9 µM | 9.57 µM | 28.5 µM | 6.96 µM | 6.12 µM | 4.46 µM |  | 3.89 µM | 8.35 µM | 3.69 µM | 3.69 µM | 2.92 µM | 6.88 µM | 2.67 µM
CCCCCCN(CCCCCC)CC(O)c1cccc2ccc(Cl)cc12 (stereo not drawn) | 22.3 µM | 25 µM | 19.5 µM | 26.4 µM | 22 µM | 22.4 µM | 25 µM | 27.1 µM | 4.46 µM | 23.5 µM | 10.4 µM | 11.6 µM | 3.21 µM | 8.36 µM | 9.48 µM | 9.43 µM | 9.59 µM | 12.4 µM | 1.67 µM | 10.5 µM
CCCCCCN1C(=O)CN=C1Nc1ccc2cc3ccc(NC4=NCC(=O)N4CCCCCC)cc3nc2c1 | 32.6 µM | 4.21 µM | 3.78 µM | 5.66 µM | 4.84 µM | 3.59 µM | 9 µM | 5.72 µM | 4.97 µM | 3.13 µM | 15.9 µM | 1.94 µM | 1.63 µM | 2.08 µM | 1.95 µM | 1.71 µM | 2.54 µM | 2.02 µM | 1.71 µM | 1.63 µM
COc1ccc(N(Cc2cc(OC)c(OC)c(OC)c2)C2OC(=O)c3ccccc32)cc1 (stereo not drawn) | 1.61 µM | 54.3 µM | > 100 µM | > 100 µM | > 100 µM | > 100 µM | > 100 µM | > 100 µM | > 100 µM | > 34.7 µM | 0.249 µM | 0.886 µM | 0.349 µM | 0.373 µM | 0.39 µM | 0.511 µM | 0.666 µM | 0.882 µM | 78 µM | 0.385 µM
OCCCCC#Cc1ccccc1C#Cc1cnccn1 | 53.9 µM | > 100 µM | 88.4 µM | 85.1 µM |  | > 100 µM | > 100 µM | > 100 µM | > 100 µM | > 100 µM | 13.5 µM | 13.8 µM | 19.5 µM | 24.9 µM |  | 47.9 µM | 34.6 µM | 32.4 µM | 27.5 µM | 37.8 µM
O=c1[nH]c(-c2ccccn2)nc2sc3c(c12)CCCCCC3 | > 100 µM | > 100 µM | > 100 µM | > 100 µM | > 100 µM |  | > 100 µM | > 100 µM | > 100 µM | > 100 µM | 1.31 µM | 6.73 µM | 3.9 µM | 6.45 µM | 4.09 µM |  | 4.05 µM | 8.66 µM | 5.54 µM | 2.16 µM
O=c1c2cc(F)ccc2sc2c(NCCCN3CCCC3)nc3ccccc3c12 | 7.65 µM | 3.94 µM | 3.85 µM | 6.22 µM | 3.47 µM | 3.37 µM | 3.15 µM |  | 23.8 µM | 3.62 µM | 1.74 µM | 2.07 µM | 1.13 µM | 2.18 µM | 1.86 µM | 1.77 µM | 1.6 µM |  | 3.89 µM | 1.81 µM
COc1cc(C(=O)N/N=C/c2cccc([N+](=O)[O-])c2)cc(OC)c1OC | 7.29 µM | > 100 µM |  | 8.6 µM | 54.3 µM | 9.86 µM | > 100 µM | > 100 µM | > 100 µM | 26.1 µM | 1.79 µM | 7.1 µM |  | 2.02 µM | 4.3 µM | 2.75 µM | 2.92 µM | 5.57 µM | 35.6 µM | 4.47 µM
CC(C)n1nc(C#Cc2cccc(NC(=O)c3cccc(C(F)(F)F)c3)c2)c2c(N)ncnc21 | 2.51 µM | 12.3 µM |  | 1.88 µM | 2.03 µM | 4.41 µM | > 100 µM | 10.4 µM | 17.5 µM | 69.4 µM | 1.07 µM | 2.78 µM |  | 0.216 µM | 0.309 µM | 0.203 µM | 2.91 µM | 2.15 µM | 3.22 µM | 3.05 µM
C=C(CC1(CC(=C)c2ccc(C(=O)O)cc2)C(=O)N(C)C(=O)N(C)C1=O)c1ccc(C(=O)O)cc1 | > 100 µM | > 100 µM | > 100 µM | > 100 µM | > 100 µM |  | > 100 µM | > 100 µM | > 100 µM | > 100 µM | 53.2 µM | > 100 µM | 78.4 µM | 67.8 µM | > 100 µM |  | 63.2 µM | 70.4 µM | 25.2 µM | 54.2 µM
Nc1ncnc2c1ncn2Cc1ccc(C23CC4CC(CC(C4)C2)C3)c(O)c1 | 49.8 µM | > 100 µM | 37.5 µM | 69.7 µM |  | > 100 µM | 96.3 µM | > 100 µM | > 100 µM | 32.6 µM | 15.8 µM | 27.3 µM | 16.4 µM | 10.7 µM |  | 12.6 µM | 8.36 µM | 21.1 µM | 58.7 µM | 14.8 µM
COc1cc(OC)cc(N2CCN(C(=O)Nc3nc4cc(F)ccc4nc3OC)CC2)c1 |  | > 100 µM and 34.9 µM | 19.3 µM and 3.83 µM and 6.77 µM | 33.2 µM and > 100 µM |  | 46.8 µM and 44.8 µM | 40.7 µM and 22.9 µM | 75.7 µM and 34.1 µM | 43.8 µM | 27.3 µM and 20.2 µM | < 0.0164 µM and 0.0126 µM | 0.0438 µM and 0.0429 µM and 0.0403 µM | < 0.01 µM and 0.0062 µM | < 0.01 µM and 0.027 µM and 0.0388 µM |  | 5.45 µM and 12.5 µM | 0.116 µM and 0.0312 µM and 0.033 µM | 0.0912 µM and 0.094 µM and 0.0661 µM | 0.832 µM | 0.0356 µM and 0.0448 µM and 0.0428 µM
CC(=O)N[C@@H]1CCC[C@H](C(=O)Nc2cc(-c3cnn4c3CC(C)(C)C4)c(Cl)cn2)C1 | 0.0313 µM | > 100 µM | 0.0389 µM | 20.1 µM |  | 0.075 µM | > 100 µM | 0.431 µM | 0.719 µM | > 100 µM | < 0.01 µM | 0.0102 µM | < 0.01 µM | < 0.01 µM |  | 0.0216 µM | < 0.01 µM | < 0.01 µM | 0.0101 µM | < 0.01 µM
CC(=O)Nc1ccc(-n2cnc3cc(-c4ccc(OCCN5CCCCC5)cc4)ccc32)cc1 |  | > 33.3 µM | 11.6 µM | 10.8 µM | 10.4 µM | 7.59 µM | 9.83 µM | 11.5 µM | 17.2 µM | 9.14 µM |  | 10.2 µM | 4.51 µM | 4.15 µM | 5.34 µM | 2.46 µM | 3.91 µM | 5.28 µM | 6.34 µM | 4.16 µM
